Results as given in patent publication US20140120595A1 (priority 2008, published 2014).
≈ marks a conversion by molar mass, not a printed value.

Tested on: E. coli K12
Experiment: microbe, parasite or virus in culture
Conditions: Escherichia coli, K12, 24 h, read-out: minimum inhibitory concentration (MIC)
Experimental: Overnight cultures of E. coli K12 were started in 5 mL LB containing no antibiotic 12-16 hours before the experiment was performed. LB broth was inoculated using aseptic technique. The culture was incubated overnight in a shaking incubator at 37 C.
The next morning 10 mL of M9 was inoculated with 100 μL of cells from the overnight culture. The tube was inverted to mix the cells prior to incubation at 37 C in the shaking incubator. While the cells were growing 96 well plates were prepared for inoculation.
A solution of concentrated M9 was made by combining 4 mL of 5×M9 salts, 40 μL of 20% glucose, 40 μL 1M MgSO4, and 2 μL of 1M CaCl2.
The plate was loaded as follows: 45 μL of concentrated M9 mixture was added to each well containing the compound concentrations and the following dilutions were performed:
Controls were prepared and loaded onto the plate as follows: 135 μL of H2O was added to positive control wells. 45 μL of the concentrated M9 mixture was added to each positive control well. 200 μL of water was added to each negative control well.
The OD600 of the cells from the overnight culture that was inoculated into M9 was checked using the spectrophotometer. The final OD600 of the cells was between 0.195 and 0.200. To achieve a final OD within this range the spectrophotometer was blanked with water. […]

In the case of `OCCCCO` [1,4-BDO, 1,4-butanediol], the MIC is reported as 50 mg/mL (≈ 555 mM).
